# Laboratory results from patent US20250051300A1, “GRAM-NEGATIVE SPECIFIC ANTIBIOTICS SPARING EFFECT ON GUT MICROBIOME” (THE BOARD OF TRUSTEES OF THE UNIVERSITY OF ILLINOIS, priority 2021, published 2025).
# Read-outs that look alike come from different tables or passages of the source.
# Assays:
# E. coli AR0349 [1] = assay: Bacterial sepsis survival model; assay type: in vivo, CD-1 mice
# Escherichia coli = assay: Resistance frequency, large inoculum method; assay type: cell-based
# Procedure: Selection of resistant mutants. Resistant mutants were selected using the large inoculum method. Briefly, E. coli BW25113, K. pneumoniae ATCC 27736, or E. cloacae ATCC 29893 (˜1.0×10^7 c.f.u.) was plated on 100-mm plates of Luria Bertani agar containing 8, 16, 32, or 64 μg/mL, lolamycin. For E. coli ΔtolC (JW5503), ˜1.0×10^7 c.f.u. was plated on 100-mm plates of Luria Bertani agar containing 0.063, 0.13, 0.25, 0.5 μg/mL lolamycin. Colonies were visible after incubating at 37° C. for 48 h. Resistant colonies were confirmed by growing colonies in selective media with the same concentration of lolamycin.
# Aqueous solubility limit = assay type: physicochemical; conditions: limit to which compounds were tested in MIC assays
# Enterobacter cloacae = assay: MIC, micro-dilution broth method (CLSI); assay type: cell-based; conditions: Enterobacter cloacae, read-out: MIC
# [2] = test system: clinical isolates of E. coli, K. pneumoniae, and E. cloacae; assay: Susceptibility of panel of multidrug-resistant clinical isolates; conditions: MDR clinical isolates of E. coli
# [3] = Mouse maximum tolerated dose / tolerability; assay type: in vivo
# Procedure: Mouse maximum tolerated dose (MTD) of compound 2 and lolamycin. […] In these studies, 10- to 12-week-old female C57BL/6 mice purchased from Charles River Laboratories were used. The maximum tolerated dose (MTD) of a single compound via IP injection was determined first. Compound 2 and lolamycin were formulated in 50% DMSO, 50% PEG400. Compound 2 and lolamycin were given by intraperitoneal (IP) injection. All the mice were monitored for signs of toxicity for 2 weeks. For multiple doses, the compound was given by daily IP injection for 5 consecutive days and the mice were monitored for signs of toxicity for 1 month. The MTD was the highest dosage with acceptable toxicity (for example, <20% weight loss).
# Next, the MTD of lolamycin via oral gavage was determined. Lolamycin was formulated in 20% DMSO, 30% Water, and 50% PEG400. Lolamycin was given via oral gavage. All the mice were monitored for signs of toxicity for 2 weeks. For multiple doses, compound was given twice daily orally for 3 consecutive days and the mice were monitored for signs of toxicity. The MTD was the highest dosage with acceptable toxicity (for example, <20% weight loss). […] The MTD of lolamycin was used to inform the dosing schedule used in subsequent efficacy studies.
# Klebsiella pneumoniae = assay: MIC, micro-dilution broth method (CLSI); assay type: cell-based; conditions: Klebsiella pneumoniae, read-out: MIC
# E. coli AR0349 [4] = assay: Acute pneumonia bacterial burden model; assay type: in vivo, CD-1 mice; conditions: lungs, 72 h post-infection
structure (smiles),measurement,setting,value
"Cc1cc(-c2c[nH]nc2-c2cccc(OCc3cccc(C#N)c3)c2)cc(C)n1 [Compound 12, 3-((3-(4-(2,6-dimethylpyridin-4-yl)-1H-pyrazol-3-yl)phenoxy)methyl)benzonitrile]",mice with septic infection rescued (survival),E. coli AR0349 [1]; 100 mg/kg IP twice daily for 3 days,100%
same,mice with septic infection rescued (survival),E. coli AR0349 [1]; 200 mg/kg PO twice daily for 3 days,over 70%
same,resistance frequency,"Escherichia coli; E. coli ΔtolC JW5503, 32×MIC",1.8×10^−8
same,resistance frequency,"Escherichia coli; wild-type E. coli BW25113, 8×MIC",3.4×10^−7
same,solubility,Aqueous solubility limit; aqueous medium (not further specified),128 µg/mL
same,solubility,Aqueous solubility limit,128 µg/mL
same,MIC,"Enterobacter cloacae; ATCC29893, E. cloacae ATCC 29893",4 µg/mL
same,MIC,"Enterobacter cloacae; ATCCBAA2341, E. cloacae ATCC BAA-2341",16 µg/mL
same,MIC,"Enterobacter cloacae; ATCCBAA2468, E. cloacae ATCC BAA-2468",4 µg/mL
same,MIC,Enterobacter cloacae; E. cloacae AR0032,2 µg/mL
same,MIC,Enterobacter cloacae; E. cloacae AR0038,8 µg/mL
same,MIC,Enterobacter cloacae; E. cloacae AR0050,0.5 µg/mL
same,MIC,Enterobacter cloacae; E. cloacae AR0053,4 µg/mL
same,MIC,Enterobacter cloacae; E. cloacae AR0060,1 µg/mL
same,MIC,Enterobacter cloacae; E. cloacae AR0065,1 µg/mL
same,MIC,Enterobacter cloacae; E. cloacae AR0072,4 µg/mL
same,MIC,Enterobacter cloacae; E. cloacae AR0073,16 µg/mL
same,MIC,Enterobacter cloacae; E. cloacae AR0093,2 µg/mL
same,MIC,Enterobacter cloacae; E. cloacae AR0132,1 µg/mL
same,MIC,Enterobacter cloacae; E. cloacae AR0136,4 µg/mL
same,MIC,Enterobacter cloacae; E. cloacae AR0154,0.25 µg/mL
same,MIC,Enterobacter cloacae; E. cloacae AR0164,2 µg/mL
same,MIC,Enterobacter cloacae; E. cloacae AR0544,4 µg/mL
same,MIC,Enterobacter cloacae; E. cloacae AR0545,1 µg/mL
same,MIC,Enterobacter cloacae; E. cloacae AR-0163,8 µg/mL
same,concentration that kills 50% of the strains,[2],~2 µg/mL
same,concentration that kills 90% of the strains,[2],~8 µg/mL
same,tolerability,"[3]; C57BL/6 mice, daily dosing of 200 mg/kg for 5 consecutive days, IP",well tolerated
same,tolerability,"[3]; C57BL/6 mice, single dose of 200 mg/kg, IP",well tolerated
same,tolerability,"[3]; mice, 100 mg/kg twice a day for three days, IP",well-tolerated
same,tolerability,"[3]; mice, 200 mg/kg twice a day for three days, oral gavage, listed as Lolamycin, 200 mg/kg",well tolerated
same,tolerability,"[3]; mice, 200 mg/kg twice a day for three days, oral gavage, listed as lolamycin, 200 mg/kg",well-tolerated
same,MIC,"Klebsiella pneumoniae; ATCC27736, K. pneumoniae ATCC 27736",1 µg/mL
same,MIC,"Klebsiella pneumoniae; ATCCBAA1705, K. pneumoniae ATCC BAA-1705",4 µg/mL
same,MIC,"Klebsiella pneumoniae; ATCCBAA2146, K. pneumoniae ATCC BAA-2146",8 µg/mL
same,MIC,"Klebsiella pneumoniae; ATCCBAA2342, K. pneumoniae ATCC BAA-2342",4 µg/mL
same,MIC,"Klebsiella pneumoniae; ATCCBAA2470, K. pneumoniae ATCC BAA-2470",1 µg/mL
same,MIC,"Klebsiella pneumoniae; ATCCBAA2472, K. pneumoniae ATCC BAA-2472",4 µg/mL
same,MIC,"Klebsiella pneumoniae; ATCCBAA2473, K. pneumoniae ATCC BAA-2473",4 µg/mL
same,MIC,Klebsiella pneumoniae; K. pneumoniae AR0034,0.5 µg/mL
same,MIC,Klebsiella pneumoniae; K. pneumoniae AR0039,0.5 µg/mL
same,MIC,Klebsiella pneumoniae; K. pneumoniae AR0041,0.5 µg/mL
same,MIC,Klebsiella pneumoniae; K. pneumoniae AR0042,4 µg/mL
same,MIC,Klebsiella pneumoniae; K. pneumoniae AR0043,0.5 µg/mL
same,MIC,Klebsiella pneumoniae; K. pneumoniae AR0044,0.5 µg/mL
same,MIC,Klebsiella pneumoniae; K. pneumoniae AR0046,2 µg/mL
same,MIC,Klebsiella pneumoniae; K. pneumoniae AR0047,4 µg/mL
same,MIC,Klebsiella pneumoniae; K. pneumoniae AR0049,8 µg/mL
same,MIC,Klebsiella pneumoniae; K. pneumoniae AR0066,4 µg/mL
same,MIC,Klebsiella pneumoniae; K. pneumoniae AR0068,4 µg/mL
same,MIC,Klebsiella pneumoniae; K. pneumoniae AR0075,1 µg/mL
same,MIC,Klebsiella pneumoniae; K. pneumoniae AR0076,0.5 µg/mL
same,MIC,Klebsiella pneumoniae; K. pneumoniae AR0079,2 µg/mL
same,MIC,Klebsiella pneumoniae; K. pneumoniae AR0080,0.5 µg/mL
same,MIC,Klebsiella pneumoniae; K. pneumoniae AR0087,2 µg/mL
same,MIC,Klebsiella pneumoniae; K. pneumoniae AR0098,4 µg/mL
same,MIC,Klebsiella pneumoniae; K. pneumoniae AR0106,2 µg/mL
same,MIC,Klebsiella pneumoniae; K. pneumoniae AR0107,0.25 µg/mL
same,MIC,Klebsiella pneumoniae; K. pneumoniae AR0109,8 µg/mL
same,MIC,Klebsiella pneumoniae; K. pneumoniae AR0112,4 µg/mL
same,MIC,Klebsiella pneumoniae; K. pneumoniae AR0113,2 µg/mL
same,MIC,Klebsiella pneumoniae; K. pneumoniae AR0115,8 µg/mL
same,MIC,Klebsiella pneumoniae; K. pneumoniae AR0117,4 µg/mL
same,MIC,Klebsiella pneumoniae; K. pneumoniae AR0120,2 µg/mL
same,MIC,Klebsiella pneumoniae; K. pneumoniae AR0125,4 µg/mL
same,MIC,Klebsiella pneumoniae; K. pneumoniae AR0126,0.5 µg/mL
same,MIC,Klebsiella pneumoniae; K. pneumoniae AR0129,4 µg/mL
same,MIC,Klebsiella pneumoniae; K. pneumoniae AR0135,2 µg/mL
same,MIC,Klebsiella pneumoniae; K. pneumoniae AR0138,1 µg/mL
same,MIC,Klebsiella pneumoniae; K. pneumoniae AR0139,2 µg/mL
same,MIC,Klebsiella pneumoniae; K. pneumoniae AR0140,2 µg/mL
same,MIC,Klebsiella pneumoniae; K. pneumoniae AR0141,0.5 µg/mL
same,MIC,Klebsiella pneumoniae; K. pneumoniae AR0142,0.5 µg/mL
same,MIC,Klebsiella pneumoniae; K. pneumoniae AR0143,4 µg/mL
same,MIC,Klebsiella pneumoniae; K. pneumoniae AR0145,2 µg/mL
same,MIC,Klebsiella pneumoniae; K. pneumoniae AR0146,2 µg/mL
same,MIC,Klebsiella pneumoniae; K. pneumoniae AR0148,4 µg/mL
same,MIC,Klebsiella pneumoniae; K. pneumoniae AR0152,0.5 µg/mL
same,MIC,Klebsiella pneumoniae; K. pneumoniae AR0153,4 µg/mL
same,MIC,Klebsiella pneumoniae; K. pneumoniae AR0158,8 µg/mL
same,MIC,Klebsiella pneumoniae; K. pneumoniae AR0160,0.5 µg/mL
same,MIC,Klebsiella pneumoniae; K. pneumoniae AR0347,8 µg/mL
same,MIC,Klebsiella pneumoniae; K. pneumoniae AR0542,2 µg/mL
same,MIC,Klebsiella pneumoniae; K. pneumoniae AR0548,2 µg/mL
same,MIC,Klebsiella pneumoniae; K. pneumoniae AR0550,2 µg/mL
same,MIC,Klebsiella pneumoniae; K. pneumoniae AR0552,4 µg/mL
same,MIC,Klebsiella pneumoniae; K. pneumoniae AR0553,0.5 µg/mL
same,MIC,Klebsiella pneumoniae; K. pneumoniae AR0554,4 µg/mL
same,MIC,Klebsiella pneumoniae; K. pneumoniae AR0555,2 µg/mL
same,MIC,Klebsiella pneumoniae; K. pneumoniae AR-0040,1 µg/mL
same,reduction in bacterial burden,E. coli AR0349 [4]; 100 mg/kg IP twice a day for 3 days,2 log
same,reduction in bacterial burden vs vehicle,E. coli AR0349 [4]; 200 mg/kg PO twice a day for 3 days,3 log
